We go through 7 compounds from ChEMBL document CHEMBL1134520, “Potent somatostatin undecapeptide agonists selective for somatostatin receptor 1 (sst1)” (J Med Chem, 2001).

Bridge positions count the residues as written; N and C are the ends. Square brackets hold non-standard residues; d marks the D form. Peptide text beside a SMILES is read from it. A value given as a limit tells only on which side of the number the result lay.

Assay [1] addresses Somatostatin receptor type 5 (Homo sapiens, UniProt P35346). The assay can be described thus: Tested for ability to bind to 20 uM thick cryostat sections of a membrane pellet of cells transfected with human cloned somatostatin (sst) receptor subtype 5.
Assay [2] has as its target Somatostatin receptor type 1 (Homo sapiens, UniProt P30872). The assay can be described thus: Tested for ability to bind to 20 uM thick cryostat sections of a membrane pellet of cells transfected with human cloned somatostatin (sst) receptor subtype 1.
Assay [3] concerns the target Somatostatin receptor type 4 (Homo sapiens, UniProt P31391). The experiment in a line: Tested for ability to bind to 20 uM thick cryostat sections of a membrane pellet of cells transfected with human cloned somatostatin (sst) receptor subtype 4.
Assay [4] addresses Somatostatin receptor type 3 (Homo sapiens, UniProt P32745). The assay can be described thus: Tested for ability to bind to 20 uM thick cryostat sections of a membrane pellet of cells transfected with human cloned somatostatin (sst) receptor subtype 3.
Assay [5] has as its target Somatostatin receptor type 2 (Homo sapiens, UniProt P30874). The assay can be described thus: Tested for ability to bind to 20 uM thick cryostat sections of a membrane pellet of cells transfected with human cloned somatostatin (sst) receptor subtype 2.

Somatostatin receptor type 4, sequence (P31391 whole entry): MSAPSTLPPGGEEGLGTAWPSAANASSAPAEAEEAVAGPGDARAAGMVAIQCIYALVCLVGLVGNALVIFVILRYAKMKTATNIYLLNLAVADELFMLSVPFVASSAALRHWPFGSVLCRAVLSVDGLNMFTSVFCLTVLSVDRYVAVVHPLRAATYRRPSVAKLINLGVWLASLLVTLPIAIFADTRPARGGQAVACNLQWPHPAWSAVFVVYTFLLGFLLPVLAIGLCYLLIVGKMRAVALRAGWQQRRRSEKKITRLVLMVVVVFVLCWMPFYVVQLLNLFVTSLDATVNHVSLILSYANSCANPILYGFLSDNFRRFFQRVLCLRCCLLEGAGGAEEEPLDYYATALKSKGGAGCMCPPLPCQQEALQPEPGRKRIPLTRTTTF
Somatostatin receptor type 5, sequence (P35346 whole entry): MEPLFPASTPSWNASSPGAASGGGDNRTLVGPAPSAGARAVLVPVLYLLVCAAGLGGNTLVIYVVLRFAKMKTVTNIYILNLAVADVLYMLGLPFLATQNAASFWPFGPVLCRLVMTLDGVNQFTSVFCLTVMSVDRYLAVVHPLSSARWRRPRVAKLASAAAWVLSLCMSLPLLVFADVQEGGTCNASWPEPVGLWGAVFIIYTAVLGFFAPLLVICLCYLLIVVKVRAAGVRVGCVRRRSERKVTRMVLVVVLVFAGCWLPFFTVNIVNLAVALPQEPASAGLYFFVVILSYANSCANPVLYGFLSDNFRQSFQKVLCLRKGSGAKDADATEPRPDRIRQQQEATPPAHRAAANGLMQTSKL
Somatostatin receptor type 1, sequence (P30872 whole entry): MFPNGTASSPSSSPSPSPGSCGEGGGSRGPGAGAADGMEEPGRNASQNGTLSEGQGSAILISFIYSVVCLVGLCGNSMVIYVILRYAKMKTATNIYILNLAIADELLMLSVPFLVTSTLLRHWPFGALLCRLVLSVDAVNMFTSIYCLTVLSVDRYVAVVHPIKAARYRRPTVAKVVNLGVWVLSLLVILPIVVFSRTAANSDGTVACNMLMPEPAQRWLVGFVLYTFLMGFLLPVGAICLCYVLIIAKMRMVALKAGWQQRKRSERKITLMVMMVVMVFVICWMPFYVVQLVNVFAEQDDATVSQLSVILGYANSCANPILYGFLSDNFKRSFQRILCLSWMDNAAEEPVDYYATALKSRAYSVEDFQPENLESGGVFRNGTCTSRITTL
Somatostatin receptor type 3, sequence (P32745 whole entry): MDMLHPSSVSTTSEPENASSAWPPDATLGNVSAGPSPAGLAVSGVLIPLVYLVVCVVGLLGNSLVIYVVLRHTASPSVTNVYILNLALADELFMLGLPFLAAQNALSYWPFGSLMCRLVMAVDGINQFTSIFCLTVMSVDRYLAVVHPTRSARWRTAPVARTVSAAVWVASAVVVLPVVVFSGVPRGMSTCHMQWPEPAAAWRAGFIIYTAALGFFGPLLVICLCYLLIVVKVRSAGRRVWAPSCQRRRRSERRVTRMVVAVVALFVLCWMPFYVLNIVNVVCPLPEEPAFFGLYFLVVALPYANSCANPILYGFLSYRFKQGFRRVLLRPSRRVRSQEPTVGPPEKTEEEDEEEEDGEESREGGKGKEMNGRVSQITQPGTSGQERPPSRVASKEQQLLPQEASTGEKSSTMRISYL
Somatostatin receptor type 2, sequence (P30874 whole entry): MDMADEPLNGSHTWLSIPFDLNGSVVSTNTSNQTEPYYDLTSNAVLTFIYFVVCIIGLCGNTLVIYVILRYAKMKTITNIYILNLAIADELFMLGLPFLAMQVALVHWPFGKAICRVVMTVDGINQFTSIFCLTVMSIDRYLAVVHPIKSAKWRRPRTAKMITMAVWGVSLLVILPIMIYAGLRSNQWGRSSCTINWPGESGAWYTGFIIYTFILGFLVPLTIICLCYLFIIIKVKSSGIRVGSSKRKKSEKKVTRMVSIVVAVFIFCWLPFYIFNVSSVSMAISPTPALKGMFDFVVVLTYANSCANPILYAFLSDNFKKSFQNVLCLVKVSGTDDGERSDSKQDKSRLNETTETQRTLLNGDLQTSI

As a reminder, the IC50 is the concentration that inhibits the measured activity by half. A low value points to greater potency. As to `CC(C)NCc1ccc(C[C@@H]2NC(=O)[C@@H](Cc3cn(Cc4ccccc4)cn3)NC(=O)[C@H](Cc3ccccc3)NC(=O)[C@H](Cc3ccccc3)NC(=O)[C@H](CCCCN)NC(=O)[C@@H](N)CSSC[C@@H](C(=O)O)NC(=O)[C@H](CO)NC(=O)[C@H]([C@@H](C)O)NC(=O)[C@H](Cc3ccccc3)NC(=O)[C@H]([C@@H](C)O)NC2=O)cc1`, the IC50 was over 10 µM in assay [1]; over 1000 nM in assay [2]; over 10000 nM in assay [3]; over 1000 nM in assay [4]; over 1000 nM in assay [5].
Take `CC(C)CN(Cc1ccc(C[C@@H]2NC(=O)[C@@H](Cc3c[nH]c4ccccc34)NC(=O)[C@H](Cc3ccccc3)NC(=O)[C@H](Cc3ccccc3)NC(=O)[C@H](CCCCN)NC(=O)[C@@H](N)CSSC[C@@H](C(=O)O)NC(=O)[C@H](CO)NC(=O)[C@H]([C@@H](C)O)NC(=O)[C@H](Cc3ccccc3)NC(=O)[C@H]([C@@H](C)O)NC2=O)cc1)CC(C)C`: the half-maximal inhibitory concentration (IC50) was over 10 µM in assay [1]; over 1000 nM in assay [2]; over 10000 nM in assay [3]; over 10000 nM in assay [4]; over 10000 nM in assay [5].
In the case of `C[C@@H](O)[C@@H]1NC(=O)[C@H](Cc2ccccc2)NC(=O)[C@H]([C@@H](C)O)NC(=O)[C@H](Cc2ccc(Nc3nnc(N)[nH]3)cc2)NC(=O)[C@@H](Cc2c[nH]c3ccccc23)NC(=O)[C@H](Cc2ccccc2)NC(=O)[C@H](Cc2ccccc2)NC(=O)[C@H](CCCCN)NC(=O)[C@@H](N)CSSC[C@@H](C(=O)O)NC(=O)[C@H](CO)NC1=O`, the IC50 was over 10 µM in assay [1]; over 1000 nM in assay [2]; over 10000 nM in assay [3]; over 10000 nM in assay [4]; over 10000 nM in assay [5].
As for `CC(C)NCc1ccc(C[C@@H]2NC(=O)[C@@H](Cc3ccc4ccccc4c3)NC(=O)[C@H](Cc3ccccc3)NC(=O)[C@H](Cc3ccccc3)NC(=O)[C@H](CCCCN)NC(=O)[C@H](NC(=O)CCc3ccc(O)cc3)CSSC[C@@H](C(=O)O)NC(=O)[C@H](CO)NC(=O)[C@H]([C@@H](C)O)NC(=O)[C@H](Cc3ccccc3)NC(=O)[C@@H]([C@@H](C)O)NC2=O)cc1` (stereo in doubt; 31), the IC50 in assay [1] is over 10 µM; in assay [2], 975 nM; in assay [3], over 1000 nM; in assay [4], over 1000 nM; in assay [5] it was over 10000 nM.
Take `C[C@H](N)C(=O)NCC(=O)N[C@H]1CSSC[C@@H](C(=O)O)NC(=O)[C@H](CO)NC(=O)[C@H]([C@@H](C)O)NC(=O)[C@H](Cc2ccccc2)NC(=O)[C@H]([C@@H](C)O)NC(=O)[C@H](CCCCN)NC(=O)[C@@H](Cc2c[nH]c3ccccc23)NC(=O)[C@H](Cc2ccccc2)NC(=O)[C@H](Cc2ccccc2)NC(=O)[C@H](CCCCN)NC1=O` (H-AGCKFF[dW]KTFTSC-OH; disulfide 3-13): the IC50 in assay [1] came out at 0.005 µM; in assay [2], 1 nM; in assay [3] it was 1.7 nM; in assay [4], 3.4 nM; in assay [5], 42.5 nM.
For `C[C@@H](O)[C@@H]1NC(=O)[C@H](Cc2ccccc2)NC(=O)[C@H]([C@@H](C)O)NC(=O)[C@H](Cc2ccc(CN)cc2)NC(=O)[C@@H](Cc2ccc3ccccc3c2)NC(=O)[C@H](Cc2ccccc2)NC(=O)[C@H](Cc2ccccc2)NC(=O)[C@H](CCCCN)NC(=O)[C@@H](N)CSSC[C@@H](C(=O)O)NC(=O)[C@H](CO)NC1=O` the same measures were 0.385 µM, 347 nM, over 1000 nM, 81 nM and 343 nM.
For `CCN=C(NCC)NCCCC[C@@H]1NC(=O)[C@@H](Cc2c[nH]c3ccccc23)NC(=O)[C@H](Cc2ccccc2)NC(=O)[C@H](Cc2ccccc2)NC(=O)[C@H](CCCCN)NC(=O)[C@@H](N)CSSC[C@@H](C(=O)O)NC(=O)[C@H](CO)NC(=O)[C@H]([C@@H](C)O)NC(=O)[C@H](Cc2ccccc2)NC(=O)[C@H]([C@@H](C)O)NC1=O` the same measures were over 10 µM, 450 nM, over 1000 nM, over 1000 nM and over 10000 nM.
